Target: T1, human vasopressin V2 receptor subtype (Homo sapiens, UniProt P30518)
T1 construct: host or cells: CHO cells (pZeoSV vector)
Experiment: Vasopressin binding in Chinese Hamster Ovary cell membranes expressing human vasopressin V2 subtype receptors
Conditions: 100 nM, CHO cell membranes, [3H]arginine vasopressin, values without parentheses
Procedure, shortened: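 Radioligand displacement on membranes from CHO cells stably expressing human V2 receptor, 25 to 50 μg protein/well, in 50 mM Tris-HCl pH 7.4 with MgCl2, BSA and protease inhibitors. [^3H]arginine vasopressin (8 nM working solution) incubated 60 min at room temperature; bound label measured by filtration and scintillation counting.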

T1 sequence (P30518 whole entry): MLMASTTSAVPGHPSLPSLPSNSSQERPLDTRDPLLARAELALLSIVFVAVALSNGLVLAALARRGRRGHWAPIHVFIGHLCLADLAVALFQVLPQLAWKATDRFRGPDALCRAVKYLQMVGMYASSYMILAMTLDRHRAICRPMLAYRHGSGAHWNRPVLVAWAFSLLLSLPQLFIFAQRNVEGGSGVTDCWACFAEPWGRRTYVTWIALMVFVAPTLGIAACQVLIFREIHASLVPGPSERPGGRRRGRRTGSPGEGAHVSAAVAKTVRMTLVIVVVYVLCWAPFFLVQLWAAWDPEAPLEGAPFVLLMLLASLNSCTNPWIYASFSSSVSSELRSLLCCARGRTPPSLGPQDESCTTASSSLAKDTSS

inhibition at 0.1 µM [%]	Structure (SMILES)
25	COc1cccc(-c2ccc(C(=O)N3Cc4ccc(C(=O)N5CCN(C(C)C)CC5)n4Cc4ccccc43)cc2OC)c1 [Example 242, {10-[(2,3′-Dimethoxy[1,1′-biphenyl]-4-yl)carbonyl]-10,11-dihydro-5H-pyrrolo[2,1-c][1,4]benzodiazepin-3-yl}(4-isopropyl-1-piperazinyl)methanone]
11	COc1ccccc1-c1ccc(C(=O)N2Cc3ccc(C(=O)N4CCN(CCN5CCOCC5)CC4)n3Cc3ccccc32)cc1OC [Example 214, {10-[(2,2′-Dimethoxy[1,1′-biphenyl]-4-yl)carbonyl]-10,11-dihydro-5H-pyrrolo[2,1-c][1,4]benzodiazepin-3-yl}{4-[2-(4-morpholinyl)ethyl]-1-piperazinyl}methanone]
14	COc1cc(-c2ccccc2C)c(Cl)cc1C(=O)N1Cc2ccc(C(=O)N(C)C3CCN(C)CC3)n2Cc2ccccc21 [Example 180, 10-[(6-Chloro-3-methoxy-2′-methyl[1,1′-biphenyl]-4-yl)carbonyl]-N-methyl-N-(1-methyl-4-piperidinyl)-10,11-dihydro-5H-pyrrolo[2,1-c][1,4]benzodiazepine-3-carboxamide]
23	Cc1ccccc1-c1ccc(C(=O)N2Cc3ccc(C(=O)N4CCN(CCN5CCOCC5)CC4)n3Cc3ccccc32)cc1C [Example 218, {10-[(2,2′-Dimethyl[1,1′-biphenyl]-4-yl)carbonyl]-10,11-dihydro-5H-pyrrolo[2,1-c][1,4]benzodiazepin-3-yl}{4-[2-(4-morpholinyl)ethyl]-1-piperazinyl}methanone]
23	Cc1ccccc1-c1ccc(C(=O)N2Cc3ccc(C(=O)N4CCN(C(C)C)CC4)n3Cc3ccccc32)cc1C [Example 233, {10-[(2,2′-Dimethyl[1,1′-biphenyl]-4-yl)carbonyl]-10,11-dihydro-5H-pyrrolo[2,1-c][1,4]benzodiazepin-3-yl}(4-isopropyl-1-piperazinyl)methanone]
18	CN(C)CCN1CCN(C(=O)c2ccc3n2Cc2ccccc2N(C(=O)c2ccc(-c4cccc5ccccc45)cc2Cl)C3)CC1 [Example 205, {10-[2-Chloro-4-(1-naphthyl)benzoyl]-10,11-dihydro-5H-pyrrolo[2,1-c][1,4]benzodiazepin-3-yl}{4-[2-(dimethylamino)ethyl]-1-piperazinyl}methanone]
27	COc1cc(-c2ccccc2C)c(Cl)cc1C(=O)N1Cc2ccc(C(=O)N3CCN(C(C)C)CC3)n2Cc2ccccc21 [Example 238, {10-[(6-Chloro-3-methoxy-2′-methyl[1,1′-biphenyl]-4-yl)carbonyl]-10,11-dihydro-5H -pyrrolo[2,1-c][1,4]benzodiazepin-3-yl}(4-isopropyl-1-piperazinyl)methanone]
20	COc1ccccc1-c1ccc(C(=O)N2Cc3ccc(C(=O)NCCC4CCCN4C)n3Cc3ccccc32)cc1C (stereo not shown) [Example 162, 10-[(2′-Methoxy-2-methyl[1,1′-biphenyl]-4-yl)carbonyl]-N-[2-(1-methyl-2-pyrrolidinyl)ethyl]-10,11-dihydro-5H-pyrrolo[2,1-c][1,4]benzodiazepine-3-carboxamide]
4	Cc1cc(C(=O)N2Cc3ccc(C(=O)NCCN4CCCCC4)n3Cc3ccccc32)ccc1-c1ccccc1C(F)(F)F [Example 161, 10-{[2-Methyl-2′-(trifluoromethyl)[1,1′-biphenyl]-4-yl]carbonyl}-N-[2-(1-piperidinyl)ethyl]-10,11-dihydro-5H-pyrrolo[2,1-c][1,4]benzodiazepine-3-carboxamide]
15	Cc1ccccc1-c1ccc(C(=O)N2Cc3ccc(C(=O)N(C)C4CCN(C)CC4)n3Cc3ccccc32)cc1 [Example 178, N-Methyl-10-[(2′-methyl[1,1′-biphenyl]-4-yl)carbonyl]-N-(1-methyl-4-piperidinyl)-10,11-dihydro-5H-pyrrolo[2,1-c][1,4]benzodiazepine-3-carboxamide]
18	COc1ccccc1-c1ccc(C(=O)N2Cc3ccc(C(=O)N(C)C4CCN(C)CC4)n3Cc3ccccc32)cc1 [Example 177, 10-[(2′-Methoxy[1,1′-biphenyl]-4-yl)carbonyl]-N-methyl-N-(1-methyl-4-piperidinyl)-10,11-dihydro-5H-pyrrolo[2,1-c][1,4]benzodiazepine-3-carboxamide]
19	COc1cc(C(=O)N2Cc3ccc(C(=O)N4CCN(CCN(C)C)CC4)n3Cc3ccccc32)ccc1-c1ccccc1C [Example 201, {4-[2-(Dimethylamino)ethyl]-1-piperazinyl}{10-[(2-methoxy-2′-methyl[1,1′-biphenyl]-4-yl)carbonyl]-10,11-dihydro-5H-pyrrolo[2,1-c][1,4]benzodiazepin-3-yl}methanone]
3	Cc1ccccc1-c1ccc(C(=O)N2Cc3ccc(C(=O)NCCC4CCCN4C)n3Cc3ccccc32)cc1 (stereo not shown) [Example 166, 10-[(2′-Methyl[1,1′-biphenyl]-4-yl)carbonyl]-N-[2-(1-methyl-2-pyrrolidinyl)ethyl]-10,11-dihydro-5H-pyrrolo[2,1-c][1,4]benzodiazepine-3-carboxamide]
22	O=C(c1ccc2n1Cc1ccccc1N(C(=O)c1ccc(-c3cccc4ccccc34)cc1Cl)C2)N1CCN(CCN2CCOCC2)CC1 [Example 215, {10-[2-Chloro-4-(1-naphthyl)benzoyl]-10,11-dihydro-5H-pyrrolo[2,1-c][1,4]benzodiazepin-3-yl}{4-[2-(4-morpholinyl)ethyl]-1-piperazinyl}methanone]
20	COc1cc(C(=O)N2Cc3ccc(C(=O)NCCC4CCCN4C)n3Cc3ccccc32)ccc1-c1ccccc1C (stereo not shown) [Example 167, 10-[(2-Methoxy-2′-methyl[1,1′-biphenyl]-4-yl)carbonyl]-N-[2-(1-methyl-2-pyrrolidinyl)ethyl]-10,11-dihydro-5H-pyrrolo[2,1-c][1,4]benzodiazepine-3-carboxamide]
0	Cc1cc(C(=O)N2Cc3ccc(C(=O)N(C)C4CCN(C)C4)n3Cc3ccccc32)ccc1-c1ccccc1C(F)(F)F (stereo not shown) [Example 194, N-Methyl-N-(1-methyl-3-pyrrolidinyl)-10-{[2-methyl-2′-(trifluoromethyl)[1,1′-biphenyl]-4-yl]carbonyl}-10,11-dihydro-5H-pyrrolo[2,1-c][1,4]benzodiazepine-3-carboxamide]
12	COc1cccc(-c2cc(OC)c(C(=O)N3Cc4ccc(C(=O)N(C)C5CCN(C)CC5)n4Cc4ccccc43)cc2Cl)c1 [Example 181, 10-[(6-Chloro-3,3′-dimethoxy[1,1′-biphenyl]-4-yl)carbonyl]-N-methyl-N-(1-methyl4-piperidinyl)-10,11-dihydro-5H-pyrrolo[2,1-c][1,4]benzodiazepine-3-carboxamide]
10	Cc1ccccc1-c1ccc(C(=O)N2Cc3ccc(C(=O)N4CCN(CCN(C)C)CC4)n3Cc3ccccc32)cc1 [Example 200, {4-[2-(Dimethylamino)ethyl]-1-piperazinyl}{10-[(2′-methyl[1,1′-biphenyl]-4-yl)carbonyl]-10,11-dihydro-5H-pyrrolo[2,1-c][1,4]benzodiazepin-3-yl}methanone]
12	COc1cccc(-c2cc(OC)c(C(=O)N3Cc4ccc(C(=O)NCCN5CCCCC5)n4Cc4ccccc43)cc2Cl)c1 [Example 156, 10-[(6-Chloro-3,3′-dimethoxy[1,1′-biphenyl]-4-yl)carbonyl]-N-[2-(1-piperidinyl)ethyl]-10,11-dihydro-5H-pyrrolo[2,1-c][1,4]benzodiazepine-3-carboxamide]

— US7109193B2, “Tricyclic diazepines tocolytic oxytocin receptor antagonists” (Wyeth, priority 2001, dated 2006)
